Results published in US20230364119A1, “AUTOPHAGY ACTIVATOR” (Resonac Corporation, priority 2020, published 2023).

Key:
[1] = system: LC3 gene; assay: LC3 gene expression promoting effect in human senescent fibroblasts (quantitative real-time PCR); assay type: cell-based
Protocol: Senescent fibroblasts were prepared by the following procedure.
Normal human fibroblasts (NB1RGB, RIKEN BRC Cell Bank) were cultured until confluent in D-MEM medium (manufactured by Sigma-Aldrich) to which 10% fetal bovine serum (manufactured by MP Biomedicals) was added. Thereafter, the cells were treated with 250 μM aqueous hydrogen peroxide for 2 hours, and cultured for 24 hours in D-MEM medium to which fresh 10% fetal bovine serum was added. The treatment with aqueous hydrogen peroxide and the cell culture operation were repeated three times, and the obtained fibroblasts were used as senescent fibroblasts.
The prepared senescent fibroblasts were prepared at a seeding density of 10000 cells/cm^2 and cultured for 24 hours in D-MEM medium (manufactured by Sigma-Aldrich) to which 10% fetal bovine serum (manufactured by MP Biomedicals) was added. […]
(§1) Then, using Nucleospin (registered trademark) RNA kit (manufactured by Takara Bio Inc.), RNA was extracted from senescent fibroblasts or normal human fibroblasts in each example, and cDNA was synthesized from the obtained RNA. Next, using this cDNA as a template, by quantitative real-time PCR, the expression level of each gene was quantified using primers (manufactured by Takara Bio Inc.) specific to the LC3 gene, ATG5 gene, and Beclin 1 gene, respectively. […]

[2] = system: ATG5 gene; assay: ATG5 gene expression promoting effect in human neuroblastoma in the presence of amyloid β; assay type: cell-based
Protocol: In the presence of an autophagy activator, the expression levels of the LC3 gene, ATG5 gene, and Beclin 1 gene in human neuroblastoma (SH-SY5Y; obtained from ATCC) were measured by the following test method, and the effect of promoting the expression of the LC3 gene, ATG5 gene, and Beclin 1 gene by an autophagy activator was evaluated.
In the following examples and comparative examples, tests were performed by adding amyloid β, which is known to cause a decrease in autophagy in nerve cells, to each medium.
SH-SY5Y cells were prepared at a seeding density of 10000 cells/cm^2 and cultured for 24 hours in D-MEM medium/Ham's F-12 medium (manufactured by Sigma-Aldrich) to which 10% fetal bovine serum (manufactured by MP Biomedicals) was added. Next, in Example 15, the inositol derivative A dissolved in purified water was added to the medium such that the final concentration of the inositol derivative A was 10-4% (V/V). […]
as §1, with “SH-SY5Y cells” for “senescent fibroblasts or normal human fibroblasts”

## O[C@H]1[C@H](O)[C@@H](O)[C@H](O)[C@@H](O)[C@H]1O [Comparative Example 2, myo-inositol]
[1]; 24 hours, 10^−3% (V/V) inositol or inositol derivative A, with the vitamin derivative of the example where added, GAPDH-standardized, Comparative Example 1 (purified water) = 1.00
  Relative gene expression level LC3: 0.77
[1]; compared to Comparative Example 1 (purified water only)
  expression level of the LC3 gene, in words: more decreased
[2]; SH-SY5Y cells with amyloid β, compared to Reference Example 3 (purified water only, no amyloid β)
  expression level of the ATG5 gene, in words: slightly increased
[2]; SH-SY5Y cells, 20 μM amyloid β present, 48 hours, 10^−3% (V/V) inositol or inositol derivative A, with the vitamin derivative of the example where added, Reference Example 3 (purified water, no amyloid β) = 1.00
  Relative gene expression level ATG5: 1.39
